We go through 6 compounds from US5189027A, “2-substituted adenosine derivatives and pharmaceutical compositions for circulatory diseases” (priority 1990, dated 1993).

Like-named read-outs stand apart in the source and are kept apart here. A value given as a limit tells only on which side of the number the result lay.

For data set [1], the target named is T1, A2 adenosine receptors (Rattus norvegicus, UniProt P30543).
T1 construct: evaluated using Wister rat striatal membranes; from tissue; host or cells: Wistar rat striatal membranes
T1 sequence (P30543 whole entry): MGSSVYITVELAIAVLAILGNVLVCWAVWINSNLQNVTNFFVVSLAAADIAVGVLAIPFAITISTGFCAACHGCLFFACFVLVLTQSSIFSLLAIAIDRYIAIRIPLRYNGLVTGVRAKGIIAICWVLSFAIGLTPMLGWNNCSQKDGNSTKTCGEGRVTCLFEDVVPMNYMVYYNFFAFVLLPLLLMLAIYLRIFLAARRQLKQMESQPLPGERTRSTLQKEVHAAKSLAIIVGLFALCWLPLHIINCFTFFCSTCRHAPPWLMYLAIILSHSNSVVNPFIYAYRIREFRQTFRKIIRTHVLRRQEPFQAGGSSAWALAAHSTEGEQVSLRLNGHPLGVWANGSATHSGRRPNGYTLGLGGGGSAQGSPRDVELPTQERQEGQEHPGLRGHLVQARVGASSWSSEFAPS
Briefly: Affinity for A2 adenosine receptors, [3H]-NECA binding to Wister rat striatal membranes. To be noted: for Ki: Wister rat striatal membranes, 5 nM [3H]-NECA, Cheng and Prusoff, read-out: Affinity for Adenosine Receptors A2, affinity constant (Ki).
Protocol: The affinity of the test compound for A2 receptors was also evaluated using Wister rat striatal membranes.
The selectivity for A1 and A2 receptors was obtained by calculating the ratio of the Ki value in terms of A2 receptors to that in terms of A1 receptors (A1 /A2).

The test system of data set [2] is spontaneously hypertensive rats (SHRs). The experiment in a line: Effect on blood pressure and heart rate in SHR. Type of data set: in vivo, rat. Conditions: for ED30: Rattus norvegicus, iv, 5 min, read-out: Blood Pressure ED30; for Heart Rate ED10: amount giving a 10 percent decrease in initial heart rate; for ED10/ED30: ratio of heart rate ED10 to blood pressure ED30 in SHR. Here is the method:
Male spontaneously hypertensive rats (SHRs) were anesthetized with urethane and α-chloralose. The blood pressure of the rats was measured with a pressure transducer through a polyethylene cannula inserted into the left carotid artery. The heart rate was monitored with a cardiotachometer triggered by the arterial pressure pulse. […] The blood pressure and the heart rate of the rats were measured 5 minutes after the respective administrations, and the maximum values thereof were determined.
Effects of the test compounds on the blood pressure and the heart rate were compared in terms of the ED30 and ED10 values.

The subject of data set [3] is A1 adenosine receptors. Conditions: background statement; cited from earlier work.
The subject of data set [4] is A2 adenosine receptors. To be noted: background statement; cited from earlier work.
Data set [5] deals with T2, A1 adenosine receptors (Rattus norvegicus, UniProt P25099).
T2 construct: evaluated using Wister rat brain membranes; from tissue; host or cells: Wistar rat brain membranes
T2 sequence (P25099 1-326): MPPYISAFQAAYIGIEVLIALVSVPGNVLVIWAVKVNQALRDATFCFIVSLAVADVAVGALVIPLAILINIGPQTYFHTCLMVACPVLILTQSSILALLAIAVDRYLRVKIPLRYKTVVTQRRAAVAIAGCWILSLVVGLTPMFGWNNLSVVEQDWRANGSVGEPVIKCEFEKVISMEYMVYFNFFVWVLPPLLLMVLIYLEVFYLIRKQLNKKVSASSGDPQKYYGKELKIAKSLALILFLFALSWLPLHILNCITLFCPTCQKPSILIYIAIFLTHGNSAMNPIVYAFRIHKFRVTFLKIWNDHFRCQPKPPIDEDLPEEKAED
The experiment in a line: Affinity for A1 adenosine receptors, [3H]-CHA binding to Wister rat brain membranes. To be noted: 2.5 nM [3H]-CHA, Cheng and Prusoff, read-out: Affinity for Adenosine Receptors A1, affinity constant (Ki). As to the method:
The affinity of the compounds of the present invention for adenosine receptors was evaluated in substantially the same manner as is described in R. F. Bruns et al., Mol. Pharmacol., 29, 331-346 (1986); R. F. Bruns et al., Proc. Natl. Acad. Sci., U.S.A., 77, 5547 (1980); and Japanese Laid-Open Patent Publications Nos. 201196/1988 and 111996/1987. […] The above-obtained data were applied to the equation of Cheng and Prusoff, presented in Biochem. Pharmacol., 22, 3099 (1973), thereby finally obtaining the affinity constants (Ki). (See "Neurotransmitter and Receptor Binding". […] Kabushiki Kaisha (Sep. 15, 1987).)

Setting [6] is: anesthetized male SHR, cumulative administration through femoral veins.

As usually defined, the Ki is a measure of affinity in units of concentration, obtained from inhibition or displacement. Turning to `CCCCCCC#Cc1nc(N)c2ncn([C@@H]3O[C@H](CO)[C@@H](O)[C@H]3O)c2n1` [2-Octynyladenosine, reference compound], the Ki in data set [1] was found to be 11 nM. In addition, in data set [1] (ratio of Ki for A1 receptors to Ki for A2 receptors), the “A1/A2 (selectivity, ratio of Ki values)” value was found to be 12.1. Moreover, the ED30 in data set [2] (amount giving a 30 percent decrease in initial blood pressure, anesthetized male SHR, cumulative administration through femoral veins) is 0.25 µg/kg. In data set [2] (setting [6]), the “Heart Rate ED10” value was 64.50 µg/kg. For the same compound, the ED10/ED30 in data set [2] came to 258.

With `CCNC(=O)[C@H]1O[C@@H](n2cnc3c(N)ncnc32)[C@H](O)[C@@H]1O` [5'-N-ethylcarboxamideadenosine (NECA), 5'-N-ethylcarboxamideadenosine], in data set [3], the “affinity for A1 receptors” value is given as “high affinity for A1 receptors”. In data set [4], the “affinity for A2 receptors” value is recorded as “high affinity for A2 receptors”.

As to `Nc1nc(C#CCC2CCCC2)nc2c1ncn2[C@@H]1O[C@H](CO)[C@@H](O)[C@H]1O` [Compound No. 18, 2-(3-cyclopentyl-1-propynyl)adenosine], the values for the Ki in data set [1] and in data set [5] were 2.3 nM and 162 nM, respectively. Besides, in data set [2], the ED30 is 0.054 µg/kg. Besides, the “Heart Rate ED10” value in data set [2] (setting [6]) was more than 100 µg/kg. Besides, the ED10/ED30 in data set [2] is on record as more than 1851.

`Nc1nc(C#CCC2CCCCC2)nc2c1ncn2[C@@H]1O[C@H](CO)[C@@H](O)[C@H]1O` [Compound No. 26, 2-(3-cyclohexyl-1-propynyl)adenosine]: the Ki in data set [5] came out at 208 nM. Moreover, in data set [2], the ED30 worked out at 0.126 µg/kg and the ED10/ED30 is more than 793. Further, in data set [2] (setting [6]), the “Heart Rate ED10” value is more than 100 µg/kg.

As for `Nc1nc(C#CC2(O)CCCCC2)nc2c1ncn2[C@@H]1O[C@H](CO)[C@@H](O)[C@H]1O` [Compound No. 29, 2-[(1-hydroxycyclohexane-1-yl)ethynyl]adenosine], in data set [5], the Ki is 21 nM. In data set [2], the ED30 came out at 0.014 µg/kg and the ED10/ED30 was found to be 235. In addition, the “Heart Rate ED10” value in data set [2] (setting [6]) was 3.29 µg/kg.

Consider `Nc1nc(C#CC2(O)CCCCCCC2)nc2c1ncn2[C@@H]1O[C@H](CO)[C@@H](O)[C@H]1O` [Compound No. 45, 2-[(1-hydroxycyclooctane-1-yl)ethynyl]adenosine], for which the Ki in data set [5] worked out at 56 nM. In data set [2], the ED30 came out at 0.012 µg/kg and the ED10/ED30 came to 1231. Also, the “Heart Rate ED10” value in data set [2] (setting [6]) stood at 14.78 µg/kg.
